Reference: US20210040151A1, “MICROMOLECULE POLYPEPTIDE AND USE THEREOF” (NANFANG HOSPITAL OF SOUTHERN MEDICAL UNIVERSITY, priority 2019, published 2021)
“Also recorded” adds a separate entry of the source.

Columns and labels:
UUO mice = experiment: Kidney fibrosis in UUO (unilateral ureter ligation) mouse model: sirus scarlet staining, fibronectin immunostaining, western blot; format: in vivo, BALB/C mice
Method: (§1) BALB/C mice, male and female, a weight ranging from 20 g to 22 g, and a SPF grade.
(§2) The animals were weighed and numbered. 18 healthy mice with a weight ranging from 20 g to 22 g were selected and randomly divided into 3 groups, with 6 mice in each group, including a sham operation group, a model group and an administration group.
(§3) 1) Sham operation group: at a room temperature, after mice were anaesthetized with 3% pentobarbital sodium at 1 ml/kg body weight, a left abdomen part of 2 cm to 3 cm was selected as an incision; and skin, a subcutaneous layer, a muscular layer and a peritoneum were cut layer by layer after local disinfection, and then were sutured layer by layer immediately after finding a left ureter. After local disinfection, the mice were verified and marked, and then placed in a corresponding mouse cage.
(§4) 2) Model control group: anesthetization and disinfection were performed same as the sham operation group. Skin, a subcutaneous layer, a muscular layer and a peritoneum were cut layer by layer, and then were sutured layer by layer after finding a left ureter and performing a ligation at an upper ⅓ segment of the ureter. After local disinfection, the mice were verified and marked, and then placed in a corresponding mouse cage.
as §4, with “3) Administration” for “2) Model control”, “as” for “as the”
KP-6T or KP-6 water soluble powder was diluted with sterile 0.01 Mol glacial acetic acid solution to a storage concentration of 10 mg/ml. The mice of each experimental group were raised in different cages. The sham operation group was only observed. The model control group was only given 0.01 Mol glacial acetic acid solution by tail vein injection. The administration group was given glacial acetic acid solution containing KP-6T or KP-6 of 0.5 mg/kg of body weight by tail vein injection on the 1st or 5th day after UUO operation for 6 consecutive days. The mice in each group were euthanized after 7 days or 11 days of raising, left kidneys were taken, and then tissues were respectively fixed with 10% neutral formaldehyde and frozen with liquid nitrogen. The formaldehyde-fixed tissues were dehydrated, embedded, sliced and flaked, and then subjected to sirus scarlet staining and fibronectin immumohistochemical staining respectively. A protein was extracted after homogenization of the frozen tissues, and a fibrosis index, and expression levels of an active-β-catenin and a target gene thereof were detected by western blot.
1) A degree of kidney tissue fibrosis was detected by sirus scarlet staining.

β-catenin signal pathway = β-catenin signal pathway in kidney tissue of UUO mice: western blot, mRNA of target genes; format: in vivo, BALB/C mice
Method: as §1, §2, §3, §4
as §4, with “3) Administration” for “2) Model control”, “as” for “as the”
KP-6T or KP-6 water soluble powder was diluted with sterile 0.01 Mol glacial acetic acid solution to a storage concentration of 10 mg/ml. The mice of each experimental group were raised in different cages. […] A protein was extracted after homogenization of the frozen tissues, and a fibrosis index, and expression levels of an active-β-catenin and a target gene thereof were detected by western blot.

[1] = UUO mice, 0.5 mg/kg tail vein injection for 6 days from 1st or 5th day after UUO, vs model control group (FIG. 2 and FIG. 5)
[2] = advanced UUO mouse, administration from 5th day after UUO, 0.5 mg/kg tail vein, vs model group (FIG. 7)
[3] = advanced UUO mouse, administration from 5th day after UUO, 0.5 mg/kg tail vein, vs model group (FIG. 7), 0.5 mg/kg
[4] = UUO mice, 0.5 mg/kg tail vein injection for 6 days from 1st or 5th day after UUO, vs model control group (FIG. 3 and FIG. 6)

Sequence: LQDAYGGWANR (Synthesized by Nanjing Genscript Biotechnology Co. Ltd.) [KP-6T]
- collagen deposition in renal interstitium (sirus scarlet staining) (UUO mice; UUO mice, 0.5 mg/kg tail vein injection for 6 consecutive days from 1st or 5th day after UUO, vs model control group (FIG. 1 and FIG. 4)): significantly lower
- level of fibronectin in kidneys (UUO mice; [1]): significantly reduced
- level of smooth muscle actin α (α-SMA) in kidneys (UUO mice; [1]): significantly reduced
- collagen deposition in the renal interstitium (UUO mice; administered the 5th day after UUO): significantly inhibit
- deposition of extracellular matrix in renal interstitium (UUO mice; [2]): significantly reduced
- protein Klotho expressed by healthy kidney tubular epithelial cells (UUO mice; [2]): recovered
- level of fibronectin in kidneys (UUO mice; [3]): significantly reduced; also recorded: significantly inhibit
- level of smooth muscle actin α (α-SMA) in kidneys (UUO mice; [3]): significantly reduced; also recorded: significantly inhibit
- expression level of downstream target gene of β-catenin (PAI-1, Snail-1, MMP7 mRNA) in kidneys (β-catenin signal pathway; [4]): significantly reduced
- expression level of β-catenin protein in kidneys (β-catenin signal pathway; [4]): significantly reduced
- Wnt signal pathway (active-β-catenin) (β-catenin signal pathway; [2]): inhibited
